Results on two compounds are retold here after article PMC4186475 (Influenza and Other Respiratory Viruses, 2013).

Assay [1] has as its system neuraminidase (NA) of influenza B viruses. It is filed as biochemical, influenza B virus.
The subject of assay [2] is neuraminidase (NA) of influenza A (H3N2) viruses. It is filed as biochemical, influenza A (H3N2) virus.

Consider `CCOC(=O)C1=C[C@@H](OC(CC)CC)[C@H](NC(C)=O)[C@@H](N)C1` [Oseltamivir, Oseltamivir (carboxylate)], for which, in assay [1], the “Fold change in IC50 of test viruses, Approach #3” value (“Fold change in IC50 … Approach #3” for short) was 6 (1) fold and the “fold change in IC50 of outliers” value is reported as 53·02 (6) fold.

With `CC(=O)N[C@H]1[C@H]([C@H](O)[C@H](O)CO)OC(C(=O)O)=C[C@@H]1N=C(N)N` [Zanamivir, zanamivir], in assay [2], the “Fold change in IC50 of test viruses, Approach #1” value was 132 (1) fold; the “Fold change in IC50 of test viruses, Approach #2” value was 132 (1) fold; the “Fold change in IC50 … Approach #3” value is 91 (1) fold; the “fold change in IC50 of outliers” value is on record as 23·75 (91) fold. Moreover, in assay [1], the “Fold change in IC50 … Approach #3” value was 5 (1) fold and the “fold change in IC50 of outliers” value is on record as 5·11 (5) fold.
